Assay results: patent publication US8309685B2 (Celgene Avilomics Research, Inc., priority 2007, dated 2012)
pIC50: −log10 of the molar value. Like-named read-outs stand apart in the source and are kept apart here.

Assays:
[1] = molecular target: T1, wild type HCV NS3/4A 1b protease enzyme (Hepatitis C virus genotype 1b, UniProt P26663); experiment: biochemical; type: biochemical; conditions: read-out: Inhibition, WT; WT enzyme, FRET assay
T1 construct: 10× stocks of NS3/4A protease enzyme from Bioenza (Mountain View, Calif.); purchased Bioenza (Mountain View, Calif.)

[2] = molecular target: T2, D168A mutant of the HCV NS3/4A 1b protease enzyme (Hepatitis C virus genotype 1b, UniProt P26663, D1194A); experiment: HCV Protease FRET Assay (IC50), D168A mutant; type: biochemical; conditions: read-out: Inhibition, HCV D168A; D168A enzyme, FRET assay
T2 construct: 10× stocks of NS3/4A protease enzyme from Bioenza (Mountain View, Calif.); purchased Bioenza (Mountain View, Calif.)

[3] = system: HCV RNA replicon in cell line ET (luc-ubi-neo/ET), human Huh7 hepatoma; experiment: Method A: HCV RNA replicon antiviral assay (luciferase, ET cell line); type: cell-based, Hepatitis C virus; conditions: Hepatitis C virus, Huh-7
Method in brief: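 ET replicon cells (Huh7 carrying luciferase-reporter HCV replicon) plated at 5×10^3 cells/well and exposed 72 hr to six 3-fold drug concentrations in DMEM/5% FBS. Replicon luciferase gave EC50/EC90; CytoTox-1 cell counts gave IC50 (viability); […]. Interferon alpha-2b served as positive control.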

[4] = system: cell line ET (luc-ubi-neo/ET), human Huh7 hepatoma cell line; experiment: Method A: cytotoxicity in ET replicon cells (CytoTox-1); type: cell-based; conditions: concentration decreasing cell viability by 50%, 72 hr
Description: The compounds were assayed to evaluate the antiviral activity and cytotoxicity of compounds in vitro using HCV RNA replicons. This assay used the cell line ET (luc-ubi-neo/ET), which is a human Huh7 hepatoma cell line that contains an HCV RNA replicon with a stable luciferase (Luc) reporter and three cell culture-adaptive mutations. […]
The ET cell line was grown in Dulbecco's modified essential media (DMEM), 10% fetal bovine serum (FBS), 1% penicillin-streptomycin (pen-strep), 1% glutamine, 250 μg/ml G418 in a 5% CO2 incubator at 37° C. All cell culture reagents were obtained from Mediatech (Manassas, Va.). Cells were trypsinized (1% trypsin:EDTA) and plated out at 5×10^3 cells/well in white 96-well assay plates (Costar) dedicated to cell number (cytotoxicity) or antiviral activity assessments. Drugs were added at six 3-fold concentrations each and the assay was run in DMEM, 5% FBS, 1% pen-strep, 1% glutamine. Human interferon alpha-2b (PBL Biolabs, New Brunswick, N.J.) was included in each run as a positive control compound. Cells were processed 72 hr post drug addition when the cells are still subconfluent. Antiviral activity was measured by analyzing replicon-derived luciferase activity using the Steady-Glo Luciferase Assay System (Promega, Madison, Wis.) according to manufacturer's instruction. The number of cells in each well was determined by CytoTox-1 reagent (Promega). […].

[5] = molecular target: T1, wild type HCV NS3/4A 1b protease enzyme; experiment: HCV Protease FRET Assay (IC50_APP), wild type; type: biochemical; conditions: read-out: IC50_APP, WT; apparent IC50, wild type NS3/4A 1b
[6] = molecular target: T3, A156T mutant of the HCV NS3/4A 1b protease enzyme (Hepatitis C virus genotype 1b, UniProt P26663, A1182T); experiment: HCV Protease FRET Assay (IC50_APP), A156T mutant; type: biochemical; conditions: apparent IC50, A156T mutant; read-out: IC50_APP, HCV A156T
T3 construct: 10× stocks of NS3/4A protease enzyme from Bioenza (Mountain View, Calif.); purchased Bioenza (Mountain View, Calif.)

[7] = molecular target: T2, D168A mutant of the HCV NS3/4A 1b protease enzyme; experiment: HCV Protease FRET Assay (IC50_APP), D168A mutant; type: biochemical; conditions: apparent IC50, D168A mutant; read-out: IC50_APP, HCV D168A
[8] = Replicon, assay of Example 22, 72 hr, read-out: Inhibition, Replicon

Compound | pIC50 [1] | pIC50 [2] | IC90 ([3]; IC90, assay described in Example 22) | pIC50 [3, 8] | pIC50 ([3]; assay described in Example 22, read-out: Replicon (IC50)) | Inhibition, Cytotoxicity [4] | pIC50 [5] | pIC50 [6] | pIC50 [7]
C=C[C@@H]1C[C@]1(NC(=O)[C@@H]1C[C@@H](Oc2cc(-c3ccccc3)nc3cc(OC)ccc23)CN1C(=O)[C@H](CN(C)C(=O)/C=C/CN(C)C)NC(=O)OC(C)(C)C)C(=O)NS(=O)(=O)c1ccccc1 [Compound I-30, tert-butyl-(S)-3-((E)-4-(dimethylamino)-N-methylbut-2-enamido)-1-((2S,4R)-4-(7-methoxy-2-phenylquinolin-4-yloxy)-2-((1R,2S)-1-(phenylsulfonylcarbamoyl)-2-vinylcyclopropylcarbamoyl)pyrrolidin-1-yl)-1-oxopropan-2-ylcarbamate] | > 8.00 | 6.00 to 7.00 | 100 to 1000 nM | 7.00 to 8.00 | 7.00 to 8.00 | E (IC50≧10,000 nM) | 7.00 to 8.00 | 5.00 to 6.00 | 5.00 to 6.00
C=CC(=O)NC[C@H](NC(=O)OC(C)(C)C)C(=O)N1C[C@H](Oc2cc(-c3ccccc3)nc3cc(OC)ccc23)C[C@H]1C(=O)N[C@]1(C(=O)O)C[C@H]1C=C [Compound I-41, (1R,2S)-1-((2S,4R)-1-((S)-3-acrylamido-2-(tert-butoxycarbonylamino)propanoyl)-4-(7-methoxy-2-phenylquinolin-4-yloxy)pyrrolidine-2-carboxamido)-2-vinylcyclopropanecarboxylic acid] | 7.00 to 8.00 | 5.00 to 6.00 | – | < 5.00 | – | E (IC50≧10,000 nM) | – | – | –
C=C[C@@H]1C[C@]1(NC(=O)[C@@H]1C[C@@H](Oc2cc(-c3ccccc3)nc3cc(OC)ccc23)CN1C(=O)CNC(=O)/C=C/C)C(=O)NS(=O)(=O)c1ccccc1 [Compound I-47, (2S,4R)-1-(2-(E)-but-2-enamidoacetyl)-4-(7-methoxy-2-phenylquinolin-4-yloxy)-N-((1R,2S)-1-(phenylsulfonylcarbamoyl)-2-vinylcyclopropyl)pyrrolidine-2-carboxamide] | 7.00 to 8.00 | 5.00 to 6.00 | – | 5.00 to 6.00 | – | E (IC50≧10,000 nM) | – | – | –
C=C[C@@H]1C[C@]1(NC(=O)[C@@H]1C[C@@H](Oc2cc(-c3ccccc3)nc3cc(OC)ccc23)CN1C(=O)CNC(=O)C#CC)C(=O)NS(=O)(=O)C1CC1 [Compound I-48, (2S,4R)-1-(2-but-2-ynamidoacetyl)-N-((1R,2S)-1-(cyclopropylsulfonylcarbamoyl)-2-vinylcyclopropyl)-4-(7-methoxy-2-phenylquinolin-4-yloxy)pyrrolidine-2-carboxamide] | 7.00 to 8.00 | 5.00 to 6.00 | – | 5.00 to 6.00 | – | E (IC50≧10,000 nM) | – | – | –
